According to PubChem BioAssay (NCI):
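Where inhibition never reached the appropriate level, the endpoint shown equals the highest concentration tested. Otherwise, values were interpolated linearly from a five-concentration, 48-hour dose response in 96-well plates. GI50 marks 50% less growth. TGI: concentration producing complete growth inhibition.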

Key:
Assay in all cases: NCI-60 cell line screen, 48 h
786-0 renal = test system: 786-0 renal
A498 renal = test system: A498 renal
A549 NSCLC = test system: A549 NSCLC
ACHN renal = test system: ACHN renal
BT-549 breast = test system: BT-549 breast
CAKI-1 renal = test system: CAKI-1 renal
CCRF-CEM leukemia = test system: CCRF-CEM leukemia
COLO 205 colon = test system: COLO 205 colon
DU-145 prostate = test system: DU-145 prostate
EKVX NSCLC = test system: EKVX NSCLC
HCC-2998 colon = test system: HCC-2998 colon
HCT-15 colon = test system: HCT-15 colon
HL-60(TB) leukemia = test system: HL-60(TB) leukemia
HOP-62 NSCLC = test system: HOP-62 NSCLC
HOP-92 NSCLC = test system: HOP-92 NSCLC
HS 578T breast = test system: HS 578T breast
HT29 colon = test system: HT29 colon
IGROV1 ovarian = test system: IGROV1 ovarian
K-562 leukemia = test system: K-562 leukemia
KM12 colon = test system: KM12 colon
LOX IMVI melanoma = test system: LOX IMVI melanoma
M14 melanoma = test system: M14 melanoma
MALME-3M melanoma = test system: MALME-3M melanoma
MCF7 breast = test system: MCF7 breast
MDA-MB-231 breast = test system: MDA-MB-231 breast
MDA-MB-435 = test system: MDA-MB-435
MOLT-4 leukemia = test system: MOLT-4 leukemia
NCI-H226 lung = test system: NCI-H226 lung
NCI-H23 lung = test system: NCI-H23 lung
NCI-H460 lung = test system: NCI-H460 lung
NCI-H522 lung = test system: NCI-H522 lung
NCI/ADR-RES ovarian = test system: NCI/ADR-RES ovarian
OVCAR-3 ovarian = test system: OVCAR-3 ovarian
OVCAR-4 ovarian = test system: OVCAR-4 ovarian
OVCAR-5 ovarian = test system: OVCAR-5 ovarian
OVCAR-8 ovarian = test system: OVCAR-8 ovarian
PC-3 prostate = test system: PC-3 prostate
RPMI-8226 leukemia = test system: RPMI-8226 leukemia
RXF 393 renal = test system: RXF 393 renal
SF-268 CNS = test system: SF-268 CNS
SF-295 CNS = test system: SF-295 CNS
SF-539 CNS = test system: SF-539 CNS
SK-MEL-2 melanoma = test system: SK-MEL-2 melanoma
SK-MEL-28 melanoma = test system: SK-MEL-28 melanoma
SK-MEL-5 melanoma = test system: SK-MEL-5 melanoma
SK-OV-3 ovarian = test system: SK-OV-3 ovarian
SNB-19 CNS = test system: SNB-19 CNS
SNB-75 CNS = test system: SNB-75 CNS
SR leukemia = test system: SR leukemia
SW-620 colon = test system: SW-620 colon
T-47D breast = test system: T-47D breast
TK-10 renal = test system: TK-10 renal
U251 CNS = test system: U251 CNS
UACC-257 melanoma = test system: UACC-257 melanoma
UACC-62 melanoma = test system: UACC-62 melanoma

`COc1cc2c(cc1OCCCCCN1CCN(CCCCCOc3cc4c(cc3OC)C(=O)C3CCC[C@H]3C=N4)CC1)N=C[C@@H]1CCCC1C2=O` (stereo not given in full) was tested, and the GI50 (786-0 renal) was 1.51 µM, the TGI (786-0 renal) was 4.64 µM and the GI50 (A498 renal) was 2.07 µM. For the same molecule, the TGI (A498 renal) was 5.48 µM, the GI50 (A549 NSCLC) was 10.7 µM and the TGI (A549 NSCLC) was over 51.8 µM. For the same molecule, the GI50 (ACHN renal) was 18.9 µM, the TGI (ACHN renal) was over 100 µM and the GI50 (BT-549 breast) was 10.9 µM. For the same molecule, the TGI (BT-549 breast) was over 86.8 µM, the GI50 (CAKI-1 renal) was 27.5 µM and the TGI (CAKI-1 renal) was over 81.4 µM. For the same molecule, the GI50 (CCRF-CEM leukemia) was 3.06 µM, the TGI (CCRF-CEM leukemia) was over 48.7 µM and the GI50 (COLO 205 colon) was 2.67 µM. For the same molecule, the TGI (COLO 205 colon) was 11.3 µM, the GI50 (DU-145 prostate) was 12.9 µM and the TGI (DU-145 prostate) was over 100 µM. For the same molecule, the GI50 (EKVX NSCLC) was 41.3 µM, the TGI (EKVX NSCLC) was over 100 µM and the GI50 (HCC-2998 colon) was 2.18 µM. The TGI (HCC-2998 colon) was 6.02 µM, the GI50 (HCT-15 colon) was 52.9 µM and the TGI (HCT-15 colon) was over 100 µM. For the same molecule, the GI50 (HL-60(TB) leukemia) was 2.83 µM, the TGI (HL-60(TB) leukemia) was 7.15 µM and the GI50 (HOP-62 NSCLC) was over 100 µM. The TGI (HOP-62 NSCLC) was over 100 µM, the GI50 (HOP-92 NSCLC) was 3.22 µM and the TGI (HOP-92 NSCLC) was over 42.6 µM. It also gave a GI50 (HS 578T breast) of 5.63 µM, a TGI (HS 578T breast) of over 68.7 µM and a GI50 (HT29 colon) of 9.47 µM. The TGI (HT29 colon) was over 100 µM, the GI50 (IGROV1 ovarian) was 3.88 µM and the TGI (IGROV1 ovarian) was over 25 µM. For the same molecule, the GI50 (K-562 leukemia) was 6.51 µM, the TGI (K-562 leukemia) was 28.4 µM and the GI50 (KM12 colon) was 13.9 µM. The TGI (KM12 colon) was over 100 µM, the GI50 (LOX IMVI melanoma) was 3.07 µM and the TGI (LOX IMVI melanoma) was over 100 µM. For the same molecule, the GI50 (M14 melanoma) was 17.5 µM, the TGI (M14 melanoma) was 80.9 µM and the GI50 (MALME-3M melanoma) was 23 µM. For the same molecule, the TGI (MALME-3M melanoma) was 47.7 µM, the GI50 (MCF7 breast) was 2.72 µM and the TGI (MCF7 breast) was over 100 µM. It also gave a GI50 (MDA-MB-231 breast) of 3.84 µM, a TGI (MDA-MB-231 breast) of over 100 µM and a GI50 (MDA-MB-435) of 5.81 µM. The TGI (MDA-MB-435) was 39.9 µM, the GI50 (MOLT-4 leukemia) was 2.55 µM and the TGI (MOLT-4 leukemia) was 7 µM. It also gave a GI50 (NCI-H226 lung) of 4.8 µM, a TGI (NCI-H226 lung) of over 74.3 µM and a GI50 (NCI-H23 lung) of 3.72 µM. The TGI (NCI-H23 lung) was over 21.1 µM, the GI50 (NCI-H460 lung) was 3.38 µM and the TGI (NCI-H460 lung) was over 94.2 µM. The GI50 (NCI-H522 lung) was 1.76 µM, the TGI (NCI-H522 lung) was over 100 µM and the GI50 (NCI/ADR-RES ovarian) was over 100 µM. The TGI (NCI/ADR-RES ovarian) was over 100 µM, the GI50 (OVCAR-3 ovarian) was 10.1 µM and the TGI (OVCAR-3 ovarian) was over 93.4 µM. The GI50 (OVCAR-4 ovarian) was 42 µM, the TGI (OVCAR-4 ovarian) was over 100 µM and the GI50 (OVCAR-5 ovarian) was 5.52 µM. For the same molecule, the TGI (OVCAR-5 ovarian) was over 54.1 µM, the GI50 (OVCAR-8 ovarian) was 7.89 µM and the TGI (OVCAR-8 ovarian) was over 37 µM. For the same molecule, the GI50 (PC-3 prostate) was 3.16 µM, the TGI (PC-3 prostate) was over 100 µM and the GI50 (RPMI-8226 leukemia) was 1.84 µM. The TGI (RPMI-8226 leukemia) was 11.9 µM, the GI50 (RXF 393 renal) was 2.23 µM and the TGI (RXF 393 renal) was 7.11 µM. For the same molecule, the GI50 (SF-268 CNS) was 3.51 µM, the TGI (SF-268 CNS) was over 100 µM and the GI50 (SF-295 CNS) was 6.19 µM. For the same molecule, the TGI (SF-295 CNS) was over 100 µM, the GI50 (SF-539 CNS) was 9.82 µM and the TGI (SF-539 CNS) was over 79 µM. For the same molecule, the GI50 (SK-MEL-2 melanoma) was 2.2 µM, the TGI (SK-MEL-2 melanoma) was 5.26 µM and the GI50 (SK-MEL-28 melanoma) was 19.4 µM. The TGI (SK-MEL-28 melanoma) was over 100 µM, the GI50 (SK-MEL-5 melanoma) was 3.34 µM and the TGI (SK-MEL-5 melanoma) was 21.6 µM. For the same molecule, the GI50 (SK-OV-3 ovarian) was 43.2 µM, the TGI (SK-OV-3 ovarian) was over 100 µM and the GI50 (SNB-19 CNS) was over 39.4 µM. The TGI (SNB-19 CNS) was over 100 µM, the GI50 (SNB-75 CNS) was 16.1 µM and the TGI (SNB-75 CNS) was over 94.4 µM. It also gave a GI50 (SR leukemia) of 2.97 µM, a TGI (SR leukemia) of 39.6 µM and a GI50 (SW-620 colon) of 2.51 µM. It also gave a TGI (SW-620 colon) of 46.6 µM, a GI50 (T-47D breast) of 6.89 µM and a TGI (T-47D breast) of over 100 µM. For the same molecule, the GI50 (TK-10 renal) was 5.05 µM, the TGI (TK-10 renal) was 14.6 µM and the GI50 (U251 CNS) was 3.74 µM. It also gave a TGI (U251 CNS) of over 100 µM, a GI50 (UACC-257 melanoma) of 9.73 µM and a TGI (UACC-257 melanoma) of over 46 µM. It also gave a GI50 (UACC-62 melanoma) of 2.35 µM and a TGI (UACC-62 melanoma) of 7.87 µM.
